The source of these data is patent publication US8536221B2, “Amide derivatives as positive allosteric modulators and methods of use thereof” (AbbVie Inc., priority 2008, dated 2013).

The structures appear in SMILES notation.

One assay concerns the target T1, human α7 NNR (Homo sapiens, UniProt P36544).
T1 construct: expressed in transfected cells; host or cells: Xenopus laevis oocytes injected with cRNA
The experiment in a line: Two-electrode voltage-clamp in Xenopus laevis oocytes, potentiation of ACh-evoked α7 currents. In kind it is cell-based. Particulars: for degree of potentiation: 0.1 mM ACh-evoked α7 currents, normalized to reference PAM at 10 μM taken as 100%, submaximum ACh without PAM as 0%; for EC50: potentiating 0.1 mM ACh-evoked α7 currents in oocytes. Here is the method: FIG. 2 is a concentration response curve obtained in the same manner for a PAM (Example 10). […] Normalized PAM potentiation is plotted on the Y-axis as a function of the concentration of the test modulator (depicted along the X-axis).
(i) Two-Electrode Voltage-Clamp in Xenopus laevis Oocytes
X. laevis oocytes were prepared for electrophysiological experiments as described in the literature (see for example, Briggs. C. A., et al., Neutropharmacology, 1995, 34: 583-590; Briggs, C. A. et al., Neutropharmacology, 1998, 37: 1095-1102). In brief, three to four lobes from ovaries of female adult X. laevis frogs were removed and defolliculated after treatment with collagenase type IA (2 mg/mL; Sigma) prepared in low-Ca^2+ Barth's solution (90 mM NaCl, 1.0 mM KCl, 0.66 mM NaNO3, 2.4 mM NaHCO3, 10 mM H-IEPES, 2.5 mM sodium pyruvate, 0.82 mM MgCl2, and 0.5% (v/v) penicillin-streptomycin solution, pH=7.55, Sigma) for about 1.5 hours to about 2 hours at about 18° C. under constant agitation to obtain isolated oocytes. The oocytes were injected with about 4 ng to about 6 ng of human α7 NNR cRNA, kept at about 18° C. in a humidified incubator in modified Barth's solution (90 mM NaCl, 1.0 mM KCl, 0.66 mM NaNO3, 2.4 mM NaHCO3, 10 mM HEPES, 2.5 mM sodium pyruvate, 0.74 mM CaCl2, 0.82 mM MgCl2, 0.5% (v/v) penicillin-streptomycin solution, pH 7.55) and used about 2 to 7 days after injection. Responses were measured by two-electrode voltage clamp using a parallel oocyte electrophysiology test station (Abbott, Abbott Park, Ill.) (see for example, Trimbull, J. D., Maslana, E. S., McKenna, D. G., Nemcek, T. A., Niforatos, W., Pan, J. Y., Parihar, A. S., Shieh, C. C., Wilkins, J. A., Briggs, C. A., and Bertrand, D. High throughput electrophysiology using a fully automated, multiplexed recording system, Receptors Channels, 2003, 9: 19-28). During recordings, the oocytes were bathed in Ba^2+—OR2 solution (90 mM NaCl, 2.5 mM KCl, 2.5 mM BaCl2, 1.0 mM MgCl2, 5.0 mM HEPES, and 0.0005 mM atropine, pH 7.4) to prevent activation of Ca^2+-dependent currents and held at −60 mV at room temperature (about 20° C.). Test compounds were given for ˜60 seconds before agonist application and subsequently in the presence of 0.1 mM ACh.

In another assay the target is α7 NNRs (Homo sapiens, UniProt P36544). Particulars: IMR-32 cells.
Assay [1] relates to formalin-induced nociceptive behavior in mice. The experiment in a line: Formalin-induced persistent nociceptive behavior assay. Particulars: 20-45 minutes post formalin injection, 10 mg/kg subcutaneously 10 minutes prior to formalin, versus vehicle. It counts as in vivo. Here is the method: FIG. 3 is a graphical representation of nocifensive response (licking duration) following treatment with vehicle or a PAM (Example 6) followed by exposure to formalin in mice. […] In Phase II (20-45 minutes post formalin injection) a significant reduction (55%) in licking behavior was observed, indicative of pain relief in this time period.
(iv) Formalin-Induced Persistent Nociceptive Behavior Assay
Nociception was assessed using the formalin test. The mice were placed in open plexiglass observation chambers for 30 minutes to allow them to acclimate to their surroundings; then they were removed for formalin administration. Mice were gently restrained while the dorsum of the hind paw was injected with 20 μL of 2.5% formalin into the plantar surface of the right hind paw with a 30-gauge needle. The animals were returned to the chambers and nociceptive behavior was observed immediately after formalin injection. Mirrors were placed in each chamber to enable unhindered observation. Nociceptive behavior was quantified as the time licking the injected paw for continuous 5 minutes (phase I) and 20-45 minutes (phase II), following formalin injection. Formalin-induced flinching/licking behavior was biphasic. The initial acute phase (phase I, 0-5 minutes) was followed by a relatively short quiescent period, which was then followed by a prolonged tonic response (phase II, 20-45 minutes).

T1 sequence (P36544 23-502): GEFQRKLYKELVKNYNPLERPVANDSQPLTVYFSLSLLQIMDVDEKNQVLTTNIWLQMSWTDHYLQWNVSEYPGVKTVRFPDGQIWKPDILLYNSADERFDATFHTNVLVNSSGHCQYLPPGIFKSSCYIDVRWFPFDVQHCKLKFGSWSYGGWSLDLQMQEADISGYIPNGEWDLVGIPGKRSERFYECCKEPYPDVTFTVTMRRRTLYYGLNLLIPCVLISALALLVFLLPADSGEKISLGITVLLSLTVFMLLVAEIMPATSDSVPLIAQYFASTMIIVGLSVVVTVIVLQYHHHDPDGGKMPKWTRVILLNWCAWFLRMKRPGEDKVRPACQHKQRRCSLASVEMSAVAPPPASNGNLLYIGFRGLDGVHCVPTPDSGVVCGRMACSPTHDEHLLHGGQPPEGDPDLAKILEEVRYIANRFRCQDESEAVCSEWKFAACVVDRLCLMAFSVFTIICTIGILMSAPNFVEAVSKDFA
Chain of α7 NNRs (P36544 23-502): as above
Description for α7 NNRs: (ii) High-Throughput Calcium Flux Assays Using Cells Expressing Endogenous α7 NNRs
As such, PAMs and nicotinic acetylcholine receptor agonists can be identified by using IMR-32 cells that endogenously express various nicotinic receptors including α7 NNRs. […] Accordingly, allosteric modulator compounds described herein can be identified using a fluorescence-based throughput functional assay using cell lines such as IMR-32 neuroblastoma or primary dissociated neurons. […] Any suitable selective α7 agonist can be used.
IMR-32 neuroblastoma cells (ATCC) were grown to confluency in 162 cm^2 tissue culture flasks in minimum essential media supplemented with 10% FBS and 1 mM sodium pyruvate, 0.1 mM non-essential amino acids and 1% antibiotic-antimycotic. […] Calcium flux was measured using a calcium-3 assay kit (Molecular Devices, Sunnyvale, Calif.) or fluo-4. […] Fluorescence measurements were read simultaneously from all the wells by a Fluorometric Imaging Plate Reader (FLIPR) at an excitation wavelength of 480 nm and an emission wavelength of 520 nm. Baseline fluorescence was measured for the first 10 seconds at which 50 μL of 3× concentrations of modulator/test compounds were added to the cell plate and incubated for three to five minutes. The fluorescence intensity was captured every second for the first 1 minute followed by every 2-5 seconds for an additional two to four minutes. […]

For the molecule `Cn1ccc2cc(CNC(=O)c3ccc(SC(F)(F)F)cc3)ccc21` [Example 10, N-[(1-methyl-1H-indol-5-yl)methyl]-4-[(trifluoromethyl)thio]benzamide], at human α7 NNR, the degree of potentiation came to 91% and the EC50 came out at 0.21 µM.
As to `CCN1C[C@]2(COC(=O)c3ccccc3N3C(=O)C[C@H](C)C3=O)CC[C@H](OC)[C@@]34[C@@H]5C[C@H]6[C@H](OC)[C@@H]5[C@](O)(C[C@@H]6OC)[C@@](O)([C@@H](OC)[C@H]23)[C@@H]14` [methyllycaconitine], the “effect on calcium response elicited by agonist in the presence of allosteric modulator” value at α7 NNRs is listed as “abolished the response”.
`Cn1ccc2ccc(CNC(=O)c3ccc(SC(F)(F)F)cc3)cc21` [Example 12, N-[(1-methyl-1H-indol-6-yl)methyl]-4-[(trifluoromethyl)thio]benzamide]: at human α7 NNR, the degree of potentiation turned out to be 99% and the EC50 stood at 1.1 µM.
In the case of `O=C(NCc1ccc2[nH]ccc2c1)c1ccc(OCC(F)(F)F)nc1` [Example 6, N-(1H-indol-5-ylmethyl)-6-(2,2,2-trifluoroethoxy)nicotinamide], in assay [1], the “reduction in licking behavior, Phase II” value is given as 55%.

The EC50 is the concentration at which the effect is half-maximal.
